In US6046329A, “Uracil derivatives” (Byk Gulden Lomberg Chemische Fabrik GmbH, priority 1994, dated 2000):

Assays:
[1] = target: T1, α1B receptor (Rattus norvegicus, UniProt P15823); assay: Radioligand binding with [3H]prazosine (in the presence of WB 4101), affinity for α1B receptor subtype; conditions: membranes from rat brain cortex, subtype-selective substances tested again in the presence of 3 nmol/l WB 4101, Cheng and Prusoff, read-out: Receptor affinity α1B, expressed in pKI values (converted)
T1 construct: membranes from rat brain cortex; from tissue; host or cells: rat brain cortex membranes
T1 sequence (P15823 1-515): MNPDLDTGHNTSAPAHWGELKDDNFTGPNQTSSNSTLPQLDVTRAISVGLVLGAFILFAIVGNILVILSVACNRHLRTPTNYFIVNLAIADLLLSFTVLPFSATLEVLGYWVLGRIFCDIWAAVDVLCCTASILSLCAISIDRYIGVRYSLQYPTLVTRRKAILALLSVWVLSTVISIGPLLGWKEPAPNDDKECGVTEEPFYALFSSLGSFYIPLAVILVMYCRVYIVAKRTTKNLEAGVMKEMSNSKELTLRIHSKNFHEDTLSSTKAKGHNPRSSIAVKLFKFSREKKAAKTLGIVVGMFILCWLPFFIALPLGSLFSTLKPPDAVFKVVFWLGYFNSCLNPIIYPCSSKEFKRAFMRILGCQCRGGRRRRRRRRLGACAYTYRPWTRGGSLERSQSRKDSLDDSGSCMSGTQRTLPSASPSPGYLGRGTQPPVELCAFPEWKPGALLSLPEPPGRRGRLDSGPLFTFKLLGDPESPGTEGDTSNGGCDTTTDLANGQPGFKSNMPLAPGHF
Experimental: (§1) The affinity of substances for α1 receptor subtypes was determined in radioligand binding studies using [^3 H]prazosine as a radioligand. 50-200 μg of membranes from rat brain cortex were incubated in a total volume of 0.5-1 ml with [^3 H]prazosine (0.2 to 0.5 nmol/l) in the presence of rising concentrations of substances. The incubation buffer used was 50 mmol/l tris/HCl pH 7.5, 1 mmol/l EDTA, 0.1 mmol/l PMSF. The nonspecific binding was determined in separate batches in the presence of 10 μmol/l of phentolamine or 1 μmol/l of prazosine. After 1 h at 37° C., the bound radioactivity was separated from the free radioactivity by rapid filtration of the incubation batch at 0° C. through glass fiber filters. The filters were washed twice with 3.5 ml each of cold filtration buffer (50 mmol/l tris/HCl pH 7.4, 10 mmol/l MgCl2, 10% polyethylene glycol 6000). The filter-bound radioactivity was determined by liquid scintillation counting. Substances with subtype selectivity for the α1 receptor subtypes were tested again in the presence of 3 nmol/l of WB 4101. WB4101 blocks the binding of [^3 H]prazosine to the α1A receptor subtype and the remaining binding corresponds to that to the α1B receptor.
(§2) For each substance, dose-response curves were plotted by means of nonlinear regression using the Inplot program (GraphPad, Sorento, Calif., USA). IC50 values were corrected by the concentration of the radioligand employed according to the formula of Cheng and Prusoff. The resulting KI values (see following table) represent the affinity of the respective substance for the tested receptor. The compounds according to the invention investigated according to the model illustrated in greater detail above have been provided in the following table with numbers which correspond to the numbers of these compounds in the examples.

[2] = target: T2, α1A receptor (Rattus norvegicus, UniProt P43140); assay: Radioligand binding with [3H]prazosine, affinity for α1A receptor subtype; conditions: membranes from rat brain cortex, IC50 corrected according to Cheng and Prusoff, read-out: Receptor affinity α1A, expressed in pKI values (converted)
T2 construct: membranes from rat brain cortex; from tissue; host or cells: rat brain cortex membranes
T2 sequence (P43140 1-466): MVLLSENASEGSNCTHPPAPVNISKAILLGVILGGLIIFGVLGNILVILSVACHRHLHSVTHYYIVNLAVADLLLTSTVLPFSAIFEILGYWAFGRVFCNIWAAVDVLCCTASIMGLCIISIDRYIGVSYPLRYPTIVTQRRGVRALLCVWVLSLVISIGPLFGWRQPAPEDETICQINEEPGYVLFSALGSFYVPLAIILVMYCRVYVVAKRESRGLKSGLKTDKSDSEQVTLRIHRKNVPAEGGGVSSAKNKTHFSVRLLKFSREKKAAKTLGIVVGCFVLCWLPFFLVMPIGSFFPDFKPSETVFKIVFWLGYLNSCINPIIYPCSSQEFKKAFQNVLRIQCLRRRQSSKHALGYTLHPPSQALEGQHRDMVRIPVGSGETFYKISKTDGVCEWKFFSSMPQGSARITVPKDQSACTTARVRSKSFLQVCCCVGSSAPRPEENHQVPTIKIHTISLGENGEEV
Experimental: as §1, §2

[3] = target: T3, 5-HT1A receptor (Sus scrofa, UniProt A0A4X1UTF5); assay: Radioligand binding with [3H]8-OH-DPAT, affinity for 5-HT1A receptor; conditions: membranes from pig brain cortex, IC50 corrected according to Cheng and Prusoff, read-out: Receptor affinity 5-HT1A, expressed in pKI values (converted)
T3 construct: membranes from pig brain cortex; from tissue; host or cells: pig brain cortex membranes
T3 sequence (A0A4X1UTF5 1-422): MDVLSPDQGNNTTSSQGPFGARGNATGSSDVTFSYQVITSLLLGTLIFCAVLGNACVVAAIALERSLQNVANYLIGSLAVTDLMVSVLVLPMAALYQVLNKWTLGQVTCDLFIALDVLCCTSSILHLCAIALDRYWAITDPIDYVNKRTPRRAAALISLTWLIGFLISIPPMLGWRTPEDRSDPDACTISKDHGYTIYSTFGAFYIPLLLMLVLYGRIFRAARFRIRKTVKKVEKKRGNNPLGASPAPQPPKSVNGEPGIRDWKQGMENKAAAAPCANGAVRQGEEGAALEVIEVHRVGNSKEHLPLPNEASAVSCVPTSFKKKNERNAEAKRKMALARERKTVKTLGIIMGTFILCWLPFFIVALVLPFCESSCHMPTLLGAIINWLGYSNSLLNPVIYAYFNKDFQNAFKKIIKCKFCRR
Experimental: The affinity of substances for the 5-HT1A receptor was determined in radioligand binding studies using [^3 H]8-OH-DPAT as a radioligand. 50-150 μg of membranes from pig brain cortex were incubated in a total volume of 0.25-0.5 ml with [^3 H]8-OH-DPAT (0.2 to 0.4 nmol/l) in the presence of rising concentrations of substances. The incubation buffer used was 50 mmol/l tris/HCl pH 8.2, 1 mmol/l MnCl2. The nonspecific binding was determined in separate batches in the presence of 10 μmol/l of 5-HT. After 30 min at 23° C., the bound radioactivity was separated from the free radioactivity by rapid filtration of the incubation batch at 0° C. through glass fiber filters. The filters were washed twice with 3.5 ml each of cold filtration buffer (50 mmol/l tris/HCl pH 7.4, 10 mmol/l MgCl2, 10% polyethylene glycol 6000). The filter-bound radioactivity was determined by liquid scintillation counting.
as §2

Structure (SMILES): COc1ccccc1N1CCN(CCCNc2c(OC)c(=O)n(C)c(=O)n2C)CC1 [Compound 17]
- Ki [1]: 50.1 nM
- Ki [2]: 50.1 nM
- Ki [3]: 2.51 nM

Structure (SMILES): COc1ccccc1N1CCN(CCCNC2=CC(=O)N(C)S(=O)(=O)N2C)CC1 [Compound 18, 5-{3-[4-(2-Methoxyphenyl)piperazin-1-yl]-propylamino}-2,6-dimethyl-1,1-dioxo-6H-[1,2,6]thiadiazin-3-one]
- Ki [1]: 126 nM
- Ki [2]: 6.31 nM
- Ki [3]: 15.8 nM

Structure (SMILES): COc1ccccc1N1CCN(CCCNc2cc(=S)n(C)c(=O)n2C)CC1 [Compound 19, 6-{3-[4-(2-Methoxyphenyl)piperazin-1-yl]-propylamino}-1,3-dimethyl-4-thioxo-3,4-dihydro-1H-pyrimidin-2-one]
- Ki [1]: 31.6 nM
- Ki [2]: 31.6 nM
- Ki [3]: 10 nM

Structure (SMILES): COc1cc(N)ccc1N1CCN(CCCNc2c(C)c(=O)n(C)c(=O)n2C)CC1 [Compound 20, 1,3,5-Trimethyl-6-[[3-[4-(4-amino-2-methoxyphenyl)-1-piperazinyl]propyl]amino]-2,4(1H,3H)-pyrimidinedione]
- Ki [1]: 6310 nM
- Ki [2]: 100 nM
- Ki [3]: 2 nM

Structure (SMILES): COc1cc(NC(C)=O)ccc1N1CCN(CCCNc2c(C)c(=O)n(C)c(=O)n2C)CC1 [Compound 21, 1,3,5-Trimethyl-6-[[3-[4-(4-acetylamino-2-methoxyphenyl)-1-piperazinyl]propyl]amino]-2,4(1H,3H)pyrimidinedione]
- Ki [1]: > 10000 nM
- Ki [2]: > 10000 nM
- Ki [3]: 5.01 nM
